Data taken from patent US20250381110A1, “SKIN CARE COMPOSITION AND METHOD OF USING THE SAME” (THE PROCTER & GAMBLE COMPANY, priority 2024, published 2025).
Where a name gives a salt, the structure may show the parent alone.

Key:
p62-dependent mitophagy [1] = assay: Luciferase-p62 clearance assay, stated for HDFs; assay type: cell-based, human; conditions: 5 μM; HDFs
Description: (§1) FIGS. 15A-15C show hydroxycinnamic acids (HCAs) tested in mitophagy assays in primary HDFs. […] 80,000 mixed aged Fibroblasts expressing the Su9-Halo-GFP reporter were treated for 48 h with the indicated HCAs. A change in the reporter excitation occurs because the GFP tag is quenched in the lysosome environment, indicating mitophagy.
To identify p62-dependent materials which increase mitophagy, a Luciferase-p62 Assay was established. This method provides an approach to measure the ability of a material to modulate p62-dependent mitophagy by using an inducible firefly luciferase-p62 (Fluc-p62) reporter cell system. In this assay, p62 levels are driven by doxycycline treatment. After levels increased, expression of Fluc-p62 is turned off by removal of doxycycline, materials are then added and assessed for how they affect clearance of Fluc-p62 protein, which is proportionate to cellular mitophagy rates (Kelly et al.). […]
Test materials including bioactive materials were screened in mouse embryonic fibroblasts (MEFs, Harada et al.) expressing the TET-inducible p62-fluc construct as previously described (Brown et al.). […] Subsequently, cells were treated with test materials for 48 hours in normal growth medium and analysed using ONE-Glo™+Tox Luciferase Reporter and Cell Viability Assay (Promega) by following the manufacturer's protocol.

[2] = tested on: primary human dermal fibroblasts (HDFs); assay: Mitophagy assay, Su9-Halo-GFP reporter, fluorescence microscopy; assay type: cell-based
Description: as §1
Primary human dermal fibroblasts (HDFs) were cultured in DMEM supplemented with 10 percent FBS, 100 units per milliliter penicillin/streptomycin, and 2 millimolar L-glutamine in a humidified atmosphere containing 5 percent carbon dioxide at 37 degrees Celsius. Stable expression of mt-mKeima was achieved through retroviral transduction (Kelly et al.). Cells stably expressing mt-mKeima were seeded in a 35 mm glass bottom dish (MatTek). The live-cell mt-Keima signal was obtained via widefield microscopy using the DMi8 and 2 filtersets to obtain the acidic (561 nm excitation, “red”) and pH-neutral (480 nm, “green”) mKeima signals. Using FIJI/ImageJ, a macro was applied to the mt-mKeima signal to extract mitolysosomes. […] Mitophagy events were determined as the number of puncta per cell. […] Fluorescence images were obtained using an LSM700 confocal microscope (Zeiss). The number of mitolysosomes (GFP-Halo+puncta) per cell was quantified using proprietary plugin in Fiji/ImageJ. […]

p62-dependent mitophagy [3] = assay: Luciferase-p62 assay (Fluc-p62 clearance) in mouse embryonic fibroblasts; assay type: cell-based; conditions: for Mean Luminescence: Luciferase-p62 assay, mouse embryonic fibroblasts (MEFs), compounds at 10 μM; for % Activity over baseline: percentage of Luciferase-p62 clearance relative to baseline (mean luminescence in the absence of doxycycline induction); for % Activity over baseline / % Activity relative to Rapamycin: MEFs, 10 μM; for % Activity relative to Rapamycin: percentage of activity relative to rapamycin tested in the same experiment at the same concentration
Summary of the method: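 MEFs with doxycycline-inducible Fluc-p62; after induction, doxycycline removed and cells treated 48 h with compounds at 10 μM. Fluc-p62 clearance, taken as mitophagy, read by ONE-Glo+Tox luciferase with viability. Vehicle (DMSO) as negative control; activity also expressed relative to rapamycin.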

Compound | p62-dependent mitophagy vs. untreated control cells (p62-dependent mitophagy [1]) | mitophagy events by fluorescence microscopy ([2]; 8 μM, 48 h, mixed aged fibroblasts, Su9-Halo-GFP reporter) | increase of basal mitophagy levels, dose-response comparison with ferulic acid ([2]; 0.1-8 μM, HDFs) | Mean Luminescence (p62-dependent mitophagy [3]) | % Activity over baseline (p62-dependent mitophagy [3]) [%] | % Activity relative to Rapamycin (p62-dependent mitophagy [3]) [%]
O=C(O)/C=C/c1ccc(O)cc1 [p-coumaric acid] | significantly increases p62-dependent mitophagy | increases mitophagy events | outperforms an O-methylated form (ferulic acid) |  |  | 
CCc1c(Cl)c(O)c(Cl)c(O)c1C(=O)O[C@H]1[C@H](O)[C@H](OC)[C@H](OC/C2=C\C=C\C[C@H](O)/C(C)=C/[C@H](CC)[C@@H](O[C@@H]3OC(C)(C)[C@@H](OC(=O)C(C)C)[C@H](O)[C@@H]3O)/C(C)=C/C(C)=C/C[C@@H]([C@@H](C)O)OC2=O)O[C@@H]1C [Fidaxomicin] |  |  |  | 262.87 | 83.75 | 150.90
O=C(O)Cc1cccc(O)c1 [3-Hydroxyphenylacetic acid] |  |  |  | 888.33 | 45.10 | 81.26
CC(=O)OCC(=O)[C@@]1(O)[C@H](C)C[C@H]2[C@@H]3CCC4=CC(=O)C=C[C@]4(C)[C@@]3(F)[C@@H](O)C[C@@]21C [Dexamethasone acetate] |  |  |  | 681.22 | 57.90 | 104.32
O=c1ccn([C@@H]2O[C@H](CO)[C@@H](O)[C@H]2O)c(=O)[nH]1 [Uridine] |  |  |  | 955.62 | 40.94 | 73.77
Clc1ccccc1C(c1ccccc1)(c1ccccc1)n1ccnc1 [Clotrimazole] |  |  |  | 623.22 | 61.48 | 110.78
CO[C@]12C[C@@H](COC(=O)c3cncc(Br)c3)CN(C)[C@@H]1Cc1cn(C)c3cccc2c13 [Nicergoline] |  |  |  | 764.49 | 52.75 | 95.05
Nc1nc(=O)c2c([nH]1)NCC(CNc1ccc(C(=O)N[C@@H](CCC(=O)O)C(=O)O)cc1)N2C=O (mixture of isomers) [Folinic acid] |  |  |  | 762.92 | 52.85 | 95.22
COc1cc(C(C)=O)ccc1O [Apocynin] |  |  |  | 973.30 | 39.85 | 71.80
N[C@@H](Cc1cc(I)c(Oc2cc(I)c(O)c(I)c2)c(I)c1)C(=O)O [Levothyroxine sodium] |  |  |  | 974.14 | 39.80 | 71.71
O=c1oc2cc(O)ccc2c2ccc(O)cc12 [Urolithin A] |  |  |  | 884.12 | 45.36 | 81.73
Nc1nc2c(ncn2[C@@H]2O[C@H](COP(=O)([O-])[O-])[C@@H](O)[C@H]2O)c(=O)[nH]1.[Na+].[Na+] [Guanosine 5′-monophosphate (sodium salt)] |  |  |  | 977.65 | 39.58 | 71.31
C=C1CC[C@@H]2[C@](C)(CO)[C@H](O)CC[C@@]2(C)[C@@H]1C/C=C1/C(=O)OC[C@H]1O [Andrographolide] |  |  |  | 818.97 | 49.39 | 88.98
O=C(O[C@@H]1O[C@@H]2COC(=O)c3cc(O)c(O)c(O)c3-c3c(cc(O)c(O)c3O)C(=O)O[C@H]([C@H]1O)[C@@H]2O)c1cc(O)c(O)c(O)c1 [Corilagin] |  |  |  | 985.42 | 39.10 | 70.45
CN(C)CCn1nnnc1SCC1=C(C(=O)O)N2C(=O)[C@@H](NC(=O)Cc3csc(N)n3)[C@H]2SC1 [Cefotiam hydrochloride] |  |  |  | 993.62 | 38.59 | 69.54
